The text below walks through data of paper PMC11070930 (The Biochemical journal, 2024).

By IC50 is commonly meant the concentration that gives 50% inhibition. Usually inhibition stands for the share of the control response that was lost under treatment. One may read the Kd as the concentration at which binding is half-saturated.

Read-outs that look alike come from different tables or passages of the source. Some results are limits rather than exact numbers.

In data set [1] the target is T1, PARP1 (Homo sapiens, UniProt P09874). Conditions: allosteric-based classification reported earlier; cited from earlier work.
For data set [2], the target named is T1, PARP1. Description: PARP1 enzyme inhibition assay. Conditions: for decrease in PARP1 inhibition potency compared to veliparib: relative to veliparib. Type of data set: biochemical.
The target in data set [3] is PARP1 Zn1-Zn3 ΔZn2;PARP1 WGR-CAT ΔVE (Homo sapiens?;Homo sapiens?, UniProt P09874;P09874 1-366;518-1014, del97-206|del687-688). The experiment in a line: X-ray crystallography.
Data set [4] addresses T2, PARP1 WT (UniProt P09874 1-1014). Description: fluorescence polarization. On the technique in general: In fluorescence polarisation assays a small probe gives low polarisation when free and higher when bound to something large.
Data set [5] deals with T2, PARP1 WT. The experiment in a line: fluorescence polarization. The source holds these as a separate data set.
In data set [6] the target is T2, PARP1 WT. The experiment in a line: fluorescence polarization. This is another data set of the same source.
Data set [7] concerns the target T2, PARP1 WT. Description: fluorescence polarization. This is another data set of the same source.
The target of data set [8] is T2, PARP1 WT. The experiment in a line: fluorescence polarization. The source holds these as a separate data set.
Data set [9] concerns the target T2, PARP1 WT. The experiment in a line: fluorescence polarization. The source holds these as a separate data set.
The target of data set [10] is T2, PARP1 WT. The experiment in a line: fluorescence polarization. This is another data set of the same source.
Data set [11] addresses T2, PARP1 WT. Description: fluorescence polarization. This is another data set of the same source.
Data set [12] concerns the target T2, PARP1 WT. The experiment in a line: fluorescence polarization. The source holds these as a separate data set.
Data set [13] has as its target T2, PARP1 WT. Description: fluorescence polarization. This is another data set of the same source.
Data set [14] concerns the target T2, PARP1 WT. The experiment in a line: fluorescence polarization. The source holds these as a separate data set.
In data set [15] the target is T2, PARP1 WT. Description: fluorescence polarization. This is another data set of the same source.
Data set [16] deals with T2, PARP1 WT. The experiment in a line: fluorescence polarization. The source holds these as a separate data set.
Where [17] appears, read: read-out: PARP1 IC50, 10-point concentration-response curve, average of at least two independent experiments.

As for `NC(=O)c1cccc([C@@H]2O[C@H](COP(=O)(O)OP(=O)(O)OC[C@H]3O[C@@H](n4cnc5c(N)ncnc54)[C@H](O)[C@@H]3O)[C@@H](O)[C@H]2O)c1` [BAD, benzamide adenine dinucleotide], the “allosteric PARPi type” value in data set [1] is recorded as “Type I”.

With `NC(=O)c1cccc2[nH]c(-c3ccc(C(=O)N4CCN(c5ncccn5)CC4)cc3)nc12` [Compound 4, 2-(4-(4-(Pyrimidin-2-yl)piperazine-1-carbonyl)phenyl)-1H-benzo[d]imidazole-4-carboxamide], in data set [2], half-maximal inhibition (IC50) required 11.9 nM and the “decrease in PARP1 inhibition potency compared to veliparib” value is “approximately nine”.

On to `NC(=O)c1cccc2[nH]c(-c3cccc(C(=O)N4CCN(c5ncccn5)CC4)c3)nc12` [Compound 5, 2-(3-(4-(Pyrimidin-2-yl)piperazine-1-carbonyl)phenyl)-1H-benzo[d]imidazole-4-carboxamide], for which the IC50 in data set [2] stood at 8.9 nM.

As to `NC(=O)c1cccc2[nH]c(-c3ccc(C(=O)N4CCN(c5ncc(C(=O)O)cn5)CC4)cc3)nc12` [Compound 7, Sodium 2-(4-(4-(4-carbamoyl-1H-benzo[d]imidazol-2-yl)benzoyl)piperazin-1-yl)pyrimidine-5-carboxylate], in data set [2], the IC50 is greater than 10 nM. Further, the inhibition at 0.01 µM in [2] (read-out: PARP1 inhibition at 10 nM) worked out at 37%.

`NC(=O)c1cccc2[nH]c(-c3ccc(C(=O)N4CCN(c5nc6ccccc6[nH]5)CC4)cc3)nc12` [Compound 8, 2-(4-(4-(1H-Benzo[d]imidazol-2-yl)piperazine-1-carbonyl)phenyl)-1H-benzo[d]imidazole-4-carboxamide]: it took 6.2 nM to reach half-maximal inhibition in data set [2] (IC50).

In the case of `NC(=O)c1cccc2[nH]c(-c3cccc(C(=O)N4CCN(c5nc6ccccc6[nH]5)CC4)c3)nc12` [Compound 9, 2-(3-(4-(1H-Benzo[d]imidazol-2-yl)piperazine-1-carbonyl)phenyl)-1H-benzo[d]imidazole-4-carboxamide], in data set [2], the IC50 was determined as 3.9 nM.

`NC(=O)c1cccc2[nH]c(-c3ccc(C(=O)NCCc4nc5ccccc5[nH]4)cc3)nc12` [Compound 10, 2-(4-((2-(1H-Benzo[d]imidazol-2-yl)ethyl)carbamoyl)phenyl)-1H-benzo[d]imidazole-4-carboxamide] showed an IC50 in data set [2] of 3.1 nM.

Take `NC(=O)c1cccc2[nH]c(-c3cccc(C(=O)NCCc4nc5ccccc5[nH]4)c3)nc12` [Compound 11, 2-(3-((2-(1H-Benzo[d]imidazol-2-yl)ethyl)carbamoyl)phenyl)-1H-benzo[d]imidazole-4-carboxamide]: in data set [2], the IC50 worked out at 121 nM and the “decrease in PARP1 inhibition potency compared to veliparib” value is ~ 100 fold.

As for `NC(=O)c1cccc2[nH]c(-c3ccc(C(=O)N4CCn5c(nnc5C(F)(F)F)C4)cc3)nc12` [Compound 12, 2-(4-(3-(Trifluoromethyl)-5,6,7,8-tetrahydro-[1,2, 4]triazolo[4,3-a]pyrazine-7-carbonyl)phenyl)-1H-benzo[d]imidazole-4-carboxamide], the IC50 in [2] (setting [17]) is 25.4 nM.

On to `NC(=O)c1cccc2[nH]c(-c3cccc(C(=O)N4CCn5c(nnc5C(F)(F)F)C4)c3)nc12` [Compound 13, 2-(3-(3-(Trifluoromethyl)-5,6,7,8-tetrahydro-[1,2, 4]triazolo[4,3-a]pyrazine-7-carbonyl)phenyl)-1H-benzo[d]imidazole-4-carboxamide], for which the IC50 in [2] (setting [17]) worked out at 25.4 nM.

For `Cc1cc(N)c(NC(=O)c2cccc(-c3nc4c(C(N)=O)cccc4[nH]3)c2)cc1C` [Compound 14, 2-(3-((2-Amino-4,5-dimethylphenyl)carbamoyl)phenyl)-1H-benzo[d]imidazole-4-carboxamide], the IC50 in data set [2] is 17.3 nM.

On to `Cl.Cl.Nc1ncnc2c1ncn2[C@@H]1O[C@H](C(=O)N2CCN(CC(=O)Nc3cccc4c3CNC4=O)CC2)[C@@H](O)[C@H]1O` [EB-47], for which the “allosteric PARPi type” value in data set [1] is recorded as “Type I”.

In the case of `COC(=O)c1cnc(N2CCN(C(=O)c3ccc(-c4nc5c(C(N)=O)cccc5[nH]4)cc3)CC2)nc1` [UKTT15 (6), Methyl 2-(4-(4-(4-carbamoyl-1H-benzo[d]imidazol-2-yl)benzoyl)piperazin-1-yl)pyrimidine-5-carboxylate], inhibition in [2] was half-maximal at 2.8 nM (IC50). The “allosteric PARPi type” value in data set [1] is listed as “Type I”.

As to `C[C@]1(c2nc3c(C(N)=O)cccc3[nH]2)CCCN1` [Veliparib], the “allosteric PARPi type” value in data set [1] is reported as “Type III”.

For the molecule `NC(=O)c1cccc2cn(-c3ccc([C@@H]4CCCNC4)cc3)nc12` [niraparib], the “allosteric PARPi type” value in data set [1] was “Type III”.

As for `CNCc1ccc(-c2[nH]c3cc(F)cc4c3c2CCNC4=O)cc1` [rucaparib], in data set [1], the “allosteric PARPi type” value is “Type III”.

B1: 5-bp DNA duplex (dsDNA)
DNA 1: CGACG
DNA 2: CGTCG
As to B1, the binding result in [3] is on record as “binds”.

B2: 18-bp DNA duplex (dsDNA)
DNA 1: GGGTTGCGGCCGCTTGGG
DNA 2: CCCAAGCGGCCGCAACCC
As to B2, the Kd stood at 62.2 ± 14.6 nM in data set [4]; 61.7 ± 25.3 nM in data set [5]; 29 ± 5.2 nM in data set [6]; 4.5 ± 1.7 nM in data set [7]; 82.1 ± 1.8 nM in data set [8]; 210 ± 25 nM in data set [9]. Besides, the Kd in data set [10] came to 52.3 ± 3.2 nM; in data set [11], 117 ± 16.8 nM; in [12], 47.7 ± 5.4 nM; in [13], 112 ± 31.2 nM; in [14] it was 11.8 ± 4.7 nM; in [15], 61.9 ± 14.4 nM. This molecule gave a Kd in [16] of 41.7 ± 11.4 nM.
